US20120178815A1, “Compositions of (-)-E-10-OH-NT and Methods for Their Synthesis and Use” (Adolor Corporation, priority 2007, published 2012)
Where two headings read alike, the source gives them in different places.

Assays:
[1] = target: T1, DA uptake, rat striatum synaptosomes (Rattus norvegicus, UniProt P23977); assay: Inhibition of [3H]-DA uptake into synaptosomes; type: biochemical; conditions: for inhibition at 10 µM: read-out: Monoamine Uptake Inhibition, DA, % inhib. at 10 μM; for IC50: read-out: Monoamine Uptake Inhibition, DA, IC50
T1 construct: into rat striatum synaptosomes; from tissue; host or cells: rat striatum synaptosomes

[2] = system: FCA-induced mechanical hyperalgesia in rats; assay: Rat FCA-induced mechanical hyperalgesia assay (paw pressure threshold); type: in vivo; conditions: for antihyperalgesia (% AH): 1 hour after treatment; for antihyperalgesia (% AH) / antihyperalgesic activity (% AH): 24 h FCA-treated rats; for antihyperalgesic activity (% AH): 60 mg/kg IP; for antihyperalgesic activity (% AH) / ED50 for reversal of mechanical hyperalgesia: 1 h posttreatment; for ED50 for reversal of mechanical hyperalgesia: response at 60 mg/kg IP taken as maximal response (100%)
Experimental: Protocol. […] Dosage amounts are based on the amount of free base. For the assay, the methods of DeHaven-Hudkins et al., 1999 were used to determine mechanical hyperalgesia in rats 24 hours after intraplantar administration of 150 μL Freund's Complete Adjuvant (FCA). To determine paw pressure thresholds, the rats were lightly restrained in a gauze wrap and pressure was applied to the dorsal surface of the inflamed and uninflamed paw with a conical piston using a pressure analgesia apparatus (Stoelting Instruments, Wood Dale, Ill.). The paw pressure threshold was defined as the amount of force (in grams) required to elicit an escape response using a cutoff value of 250 grams.
Paw pressure thresholds were measured 1 h posttreatment.
Protocol. […] For comparison, sterile water vehicle was tested as a negative control. The methods of DeHaven-Hudkins et al., 1999 were used to determine mechanical hyperalgesia in rats 24 hours after intraplantar administration of 150 μL Freund's Complete Adjuvant (FCA). To determine paw pressure thresholds, the rats were lightly restrained in a gauze wrap and pressure was applied to the dorsal surface of the inflamed and uninflamed paw with a conical piston using a pressure analgesia apparatus (Stoelting Instruments, Wood Dale, Ill.). The paw pressure threshold was defined as the amount of force (in grams) required to elicit an escape response using a cutoff value of 250 grams.
Paw pressure thresholds were determined 1, 2, or 4 hours after administration using the methods disclosed in Examples 5 and 18.
Accordingly, rats were treated with sterile water vehicle, 30, or 60 mg/kg IP twenty-four hours after administration of FCA.

CYP2D6 = target: T2, CYP2D6 (Homo sapiens, UniProt P10635); assay: CYP2D6 inhibition, MAMC substrate; type: in vitro ADME; conditions: average of six replicate experiments; for inhibition at 10 µM: human, microsomes containing human recombinant CYP2D6, probe 7-methoxy-4-(aminomethyl)-coumarin (MAMC), 10 μM test compound, read-out: Inhibition of CYP2D6, % inhib. at 10 μM; for IC50: 95% confidence limits in parentheses
T2 construct: purchased BD Bioscience
Experimental: Protocol. The inhibitory activities of AT and NT, (+)-E-10-OH-NT and (−)-E-10-OH-NT on cytochrome P450 function were tested using the methods of Chauret et al., 2001, using 7-methoxy-4-(aminomethyl)-coumarin (MAMC) (Venhorst et al., 2000) as substrate. The source of the enzyme was microsomes containing human recombinant CYP2D6 obtained from BD Bioscience. Conversion of MAMC to 7-hydroxy-4-(aminomethyl)coumarin was measured using a PerkinElmer Fusion with a 390 nm excitation filter and a 460 nm emission filter.

α1b adrenergic receptor = target: T3, α1b adrenergic receptor (Homo sapiens, UniProt P35368); assay: α1b adrenergic receptor binding, [3H]prazocine
T3 construct: expressed in transfected cells; host or cells: CHO cells (membranes)
T3 sequence (P35368 1-520): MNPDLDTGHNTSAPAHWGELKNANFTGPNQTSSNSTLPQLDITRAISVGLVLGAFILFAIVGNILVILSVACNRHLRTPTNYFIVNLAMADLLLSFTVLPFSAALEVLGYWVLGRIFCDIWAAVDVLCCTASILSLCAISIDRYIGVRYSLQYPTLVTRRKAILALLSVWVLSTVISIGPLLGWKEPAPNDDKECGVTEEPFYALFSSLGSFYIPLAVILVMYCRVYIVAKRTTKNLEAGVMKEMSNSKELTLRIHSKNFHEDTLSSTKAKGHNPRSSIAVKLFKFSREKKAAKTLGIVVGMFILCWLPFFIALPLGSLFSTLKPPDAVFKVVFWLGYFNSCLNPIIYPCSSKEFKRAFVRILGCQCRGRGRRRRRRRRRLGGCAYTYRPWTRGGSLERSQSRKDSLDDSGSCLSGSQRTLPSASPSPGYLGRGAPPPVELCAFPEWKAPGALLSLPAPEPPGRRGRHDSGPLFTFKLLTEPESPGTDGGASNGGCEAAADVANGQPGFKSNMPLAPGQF
Experimental: Affinity for the α1b adrenergic receptor was tested using membranes prepared from Chinese hamster ovary (CHO) cells heterologously expressing the cloned human receptor that were incubated with [^3H]prazocine (0.15 nM) in the presence of various concentrations of test compounds for 1 hour at 22° C. Nonspecific binding was determined in the presence of 10 μM phentolamine. Bound radioactivity was determined by scintillation spectroscopy.

[3] = target: T4, human dopamine transporter (hDAT) (Homo sapiens, UniProt Q01959); assay: DA transporter competitive binding assay, [3H]BTCP; conditions: for inhibition at 10 µM: read-out: Monoamine Transporter Affinity, DA, % inhib at 10 μM; for Ki: read-out: Monoamine Transporter Affinity, DA, Ki
T4 construct: expressed in transfected cells; host or cells: CHO cells (membranes)
Experimental: For the DA transporter binding assay, [^3H]N-[1-(2-benzo[b]thiophenyl)cyclohexyl]-piperidine ([^3H]BTCP) (4.0 nM) was incubated for 2 hr at 4° C. with membranes prepared from Chinese hamster ovary (CHO) cells heterologously expressing the cloned human dopamine transporter (hDAT). Various concentrations of test compound were added and bound radioactivity was determined by scintillation spectroscopy. Non-specific binding was defined as binding that occurred in the presence of 10 μM BTCP. The Ki values for the various test compounds were determined using standard methods.

α2c adrenergic receptor = target: T5, α2c adrenergic receptor (Homo sapiens, UniProt P18825); assay: α2c adrenergic receptor binding, [3H]RX821002; conditions: for inhibition at 10 µM: read-out: α2c adrenergic receptor, % inhib. at 10 μM
T5 construct: expressed in transfected cells; host or cells: CHO cells
T5 sequence (P18825 1-462): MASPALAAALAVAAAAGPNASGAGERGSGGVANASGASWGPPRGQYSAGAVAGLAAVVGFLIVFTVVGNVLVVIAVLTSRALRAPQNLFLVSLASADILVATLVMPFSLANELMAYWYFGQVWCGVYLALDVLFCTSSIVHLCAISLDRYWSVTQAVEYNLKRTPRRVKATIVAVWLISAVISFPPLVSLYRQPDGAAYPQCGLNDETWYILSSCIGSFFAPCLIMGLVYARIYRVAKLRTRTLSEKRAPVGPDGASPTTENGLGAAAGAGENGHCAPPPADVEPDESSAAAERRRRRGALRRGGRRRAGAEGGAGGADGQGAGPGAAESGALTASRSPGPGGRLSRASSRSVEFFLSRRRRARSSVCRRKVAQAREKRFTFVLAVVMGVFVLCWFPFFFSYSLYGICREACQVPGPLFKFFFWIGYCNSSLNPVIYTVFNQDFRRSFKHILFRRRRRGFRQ
Experimental: Nonspecific binding was determined in the presence of 100 μM (−)-epinephrine. Bound radioactivity was determined by scintillation spectroscopy.

[4] = read-out: Affinity at α1b adrenergic receptor, Ki

T2 sequence (P10635 whole entry): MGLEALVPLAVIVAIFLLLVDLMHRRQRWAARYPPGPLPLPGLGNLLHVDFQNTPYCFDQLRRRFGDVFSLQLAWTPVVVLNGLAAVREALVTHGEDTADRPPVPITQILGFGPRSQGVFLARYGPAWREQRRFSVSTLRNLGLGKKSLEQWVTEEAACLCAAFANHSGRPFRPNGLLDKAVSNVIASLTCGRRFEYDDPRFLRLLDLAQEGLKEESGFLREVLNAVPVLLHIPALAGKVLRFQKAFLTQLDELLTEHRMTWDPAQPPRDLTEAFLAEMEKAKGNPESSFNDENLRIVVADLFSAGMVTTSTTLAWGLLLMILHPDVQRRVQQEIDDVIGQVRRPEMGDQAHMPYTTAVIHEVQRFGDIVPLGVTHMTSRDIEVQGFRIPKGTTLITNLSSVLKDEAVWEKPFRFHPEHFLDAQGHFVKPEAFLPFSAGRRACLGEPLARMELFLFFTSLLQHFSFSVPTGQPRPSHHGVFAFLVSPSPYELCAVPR
T4 sequence (Q01959 whole entry): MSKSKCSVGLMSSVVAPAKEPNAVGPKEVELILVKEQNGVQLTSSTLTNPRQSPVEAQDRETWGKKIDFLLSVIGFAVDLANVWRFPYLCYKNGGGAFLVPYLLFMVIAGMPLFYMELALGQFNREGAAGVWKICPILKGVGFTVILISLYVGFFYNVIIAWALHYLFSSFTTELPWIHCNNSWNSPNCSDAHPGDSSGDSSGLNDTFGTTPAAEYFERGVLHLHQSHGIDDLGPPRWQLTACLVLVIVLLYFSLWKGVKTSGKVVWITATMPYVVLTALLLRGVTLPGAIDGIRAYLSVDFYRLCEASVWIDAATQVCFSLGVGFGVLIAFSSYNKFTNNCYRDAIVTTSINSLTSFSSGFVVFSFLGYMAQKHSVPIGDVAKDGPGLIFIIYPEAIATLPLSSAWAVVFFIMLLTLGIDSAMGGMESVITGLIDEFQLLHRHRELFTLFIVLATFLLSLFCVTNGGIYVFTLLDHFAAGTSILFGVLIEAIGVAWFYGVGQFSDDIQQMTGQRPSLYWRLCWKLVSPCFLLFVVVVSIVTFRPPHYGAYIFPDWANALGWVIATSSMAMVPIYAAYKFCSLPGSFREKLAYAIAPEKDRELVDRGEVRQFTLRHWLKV
T1 sequence (P23977 whole entry): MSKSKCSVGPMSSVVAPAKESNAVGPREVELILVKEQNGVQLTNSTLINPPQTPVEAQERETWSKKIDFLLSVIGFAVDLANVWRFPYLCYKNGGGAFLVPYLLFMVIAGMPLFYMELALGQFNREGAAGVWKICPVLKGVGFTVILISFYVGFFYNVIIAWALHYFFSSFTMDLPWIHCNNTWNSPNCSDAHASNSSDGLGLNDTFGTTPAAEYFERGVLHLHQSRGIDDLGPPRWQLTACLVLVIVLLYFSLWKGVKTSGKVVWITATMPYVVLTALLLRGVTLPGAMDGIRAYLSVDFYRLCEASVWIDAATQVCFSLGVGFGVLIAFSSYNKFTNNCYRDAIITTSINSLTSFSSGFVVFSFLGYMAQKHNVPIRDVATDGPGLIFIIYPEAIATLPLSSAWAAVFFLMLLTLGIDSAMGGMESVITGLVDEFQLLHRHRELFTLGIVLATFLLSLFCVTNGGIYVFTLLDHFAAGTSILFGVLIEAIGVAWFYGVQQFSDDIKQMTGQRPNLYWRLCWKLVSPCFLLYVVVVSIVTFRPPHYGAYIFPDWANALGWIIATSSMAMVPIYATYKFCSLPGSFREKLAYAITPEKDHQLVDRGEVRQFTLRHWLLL

SMILES	inhibition at 10 µM [1] [%]	IC50 [1] [nM]	antihyperalgesia (% AH) ([2]; 30 mg/kg IP)	antihyperalgesic activity, time course ([2]; 30 mg/kg IP, 1, 2, or 4 hours after administration)	antihyperalgesic activity (% AH) [2] [% AH]	inhibition at 10 µM (CYP2D6) [%]	Ki (α1b adrenergic receptor; [4]) [nM]	inhibition at 10 µM [3] [%]	Ki [3] [nM]	inhibition at 10 µM (α2c adrenergic receptor) [%]	antihyperalgesic activity (Example 5) ([2]; 30 mg/kg, i.p.)	antihyperalgesic activity, orally-administered ([2]; oral administration)	ED50 for reversal of mechanical hyperalgesia [2] [mg/kg IP]	IC50 (CYP2D6) [nM]	Ki (α2c adrenergic receptor; read-out: Affinity at α2c adrenergic receptor, Ki) [nM]	Ki (α1b adrenergic receptor) [nM]
CNCC/C=C1\c2ccccc2C[C@H](O)c2ccccc21 (stereo in doubt) [(+)-E-10-OH-NT]	19	> 1000	not antihyperalgesic	not antihyperalgesic at any time point tested	40±13	40	690	25	> 1000	35	–	–	–	–	–	–
CNCC/C=C1\c2ccccc2C[C@@H](O)c2ccccc21 (stereo in doubt) [(−)-E-10-OH-NT]	16	> 1000	55±7 % AH	–	270±53	37	2600	3	> 1000	30	robust antihyperalgesic activity	significant activity	36	–	–	–
CN(C)CCC=C1c2ccccc2CCc2ccccc21 [AT, amitriptyline, reference compound]	–	2400	–	–	259±39	–	5.9	–	2100	–	–	–	38	820	13	–
CNCCC=C1c2ccccc2CCc2ccccc21 [NT, nortriptyline, reference compound]	–	1700	–	–	–	–	–	–	–	–	–	–	–	700	–	21
